Measurements published in PubChem BioAssay (NCI).
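Results reflect a 48-hour exposure of cells in 96-well plates to compound at five concentrations. GI50 = concentration required for 50% inhibition of growth. The concentration for full growth arrest is given as TGI.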

How the values were obtained:
Test in all cases: growth of human tumour cells (NCI), 48 h
SNB-75 CNS = test system: SNB-75 CNS
OVCAR-8 ovarian = test system: OVCAR-8 ovarian
HOP-62 NSCLC = test system: HOP-62 NSCLC
MCF7 breast = test system: MCF7 breast
MOLT-4 leukemia = test system: MOLT-4 leukemia
CCRF-CEM leukemia = test system: CCRF-CEM leukemia
SK-MEL-5 melanoma = test system: SK-MEL-5 melanoma
NCI-H460 lung = test system: NCI-H460 lung
ACHN renal = test system: ACHN renal
HCC-2998 colon = test system: HCC-2998 colon
HCT-15 colon = test system: HCT-15 colon
HS 578T breast = test system: HS 578T breast
UACC-257 melanoma = test system: UACC-257 melanoma
NCI-H226 lung = test system: NCI-H226 lung
TK-10 renal = test system: TK-10 renal
SF-295 CNS = test system: SF-295 CNS
U251 CNS = test system: U251 CNS
K-562 leukemia = test system: K-562 leukemia
CAKI-1 renal = test system: CAKI-1 renal
OVCAR-5 ovarian = test system: OVCAR-5 ovarian
NCI-H23 lung = test system: NCI-H23 lung
SF-268 CNS = test system: SF-268 CNS
BT-549 breast = test system: BT-549 breast
MDA-MB-435 = test system: MDA-MB-435
HCT-116 colon = test system: HCT-116 colon
SF-539 CNS = test system: SF-539 CNS
COLO 205 colon = test system: COLO 205 colon
HT29 colon = test system: HT29 colon
IGROV1 ovarian = test system: IGROV1 ovarian
786-0 renal = test system: 786-0 renal
HL-60(TB) leukemia = test system: HL-60(TB) leukemia
NCI/ADR-RES ovarian = test system: NCI/ADR-RES ovarian
RXF 393 renal = test system: RXF 393 renal
LOX IMVI melanoma = test system: LOX IMVI melanoma
UO-31 renal = test system: UO-31 renal
SK-MEL-2 melanoma = test system: SK-MEL-2 melanoma
MALME-3M melanoma = test system: MALME-3M melanoma
SW-620 colon = test system: SW-620 colon
NCI-H522 lung = test system: NCI-H522 lung
SN12C renal = test system: SN12C renal
PC-3 prostate = test system: PC-3 prostate
T-47D breast = test system: T-47D breast
SK-OV-3 ovarian = test system: SK-OV-3 ovarian
OVCAR-3 ovarian = test system: OVCAR-3 ovarian
M14 melanoma = test system: M14 melanoma
SR leukemia = test system: SR leukemia
HOP-92 NSCLC = test system: HOP-92 NSCLC
A498 renal = test system: A498 renal
KM12 colon = test system: KM12 colon
SK-MEL-28 melanoma = test system: SK-MEL-28 melanoma
A549 NSCLC = test system: A549 NSCLC
OVCAR-4 ovarian = test system: OVCAR-4 ovarian
UACC-62 melanoma = test system: UACC-62 melanoma
SNB-19 CNS = test system: SNB-19 CNS
RPMI-8226 leukemia = test system: RPMI-8226 leukemia
DU-145 prostate = test system: DU-145 prostate
MDA-MB-231 breast = test system: MDA-MB-231 breast

Cn1cc(C2=C(c3cn(CCCCC(=N)N)c4ccccc34)C(=O)NC2=O)c2ccccc21
GI50 (SNB-75 CNS): 1650 nM
TGI (SNB-75 CNS): > 25 µM
GI50 (OVCAR-8 ovarian): > 25 µM
TGI (OVCAR-8 ovarian): > 25 µM
GI50 (HOP-62 NSCLC): > 25 µM
TGI (HOP-62 NSCLC): > 25 µM
GI50 (MCF7 breast): 10.9 µM
TGI (MCF7 breast): > 25 µM
GI50 (MOLT-4 leukemia): 22.1 µM
TGI (MOLT-4 leukemia): > 25 µM
GI50 (CCRF-CEM leukemia): 11.5 µM
TGI (CCRF-CEM leukemia): > 25 µM
GI50 (SK-MEL-5 melanoma): > 23.6 µM
TGI (SK-MEL-5 melanoma): > 25 µM
GI50 (NCI-H460 lung): > 23.8 µM
TGI (NCI-H460 lung): > 25 µM
GI50 (ACHN renal): > 25 µM
TGI (ACHN renal): > 25 µM
GI50 (HCC-2998 colon): > 25 µM
TGI (HCC-2998 colon): > 25 µM
GI50 (HCT-15 colon): > 25 µM
TGI (HCT-15 colon): > 25 µM
GI50 (HS 578T breast): > 25 µM
TGI (HS 578T breast): > 25 µM
GI50 (UACC-257 melanoma): > 25 µM
TGI (UACC-257 melanoma): > 25 µM
GI50 (NCI-H226 lung): > 25 µM
TGI (NCI-H226 lung): > 25 µM
GI50 (TK-10 renal): > 25 µM
TGI (TK-10 renal): > 25 µM
GI50 (SF-295 CNS): > 13.7 µM
TGI (SF-295 CNS): > 25 µM
GI50 (U251 CNS): 17.2 µM
TGI (U251 CNS): > 25 µM
GI50 (K-562 leukemia): 13.5 µM
TGI (K-562 leukemia): > 25 µM
GI50 (CAKI-1 renal): > 25 µM
TGI (CAKI-1 renal): > 25 µM
GI50 (OVCAR-5 ovarian): > 25 µM
TGI (OVCAR-5 ovarian): > 25 µM
GI50 (NCI-H23 lung): > 25 µM
TGI (NCI-H23 lung): > 25 µM
GI50 (SF-268 CNS): > 25 µM
TGI (SF-268 CNS): > 25 µM
GI50 (BT-549 breast): > 25 µM
TGI (BT-549 breast): > 25 µM
GI50 (MDA-MB-435): 10.5 µM
TGI (MDA-MB-435): > 25 µM
GI50 (HCT-116 colon): 17.5 µM
TGI (HCT-116 colon): > 25 µM
GI50 (SF-539 CNS): > 21.6 µM
TGI (SF-539 CNS): > 25 µM
GI50 (COLO 205 colon): 11.8 µM
TGI (COLO 205 colon): > 25 µM
GI50 (HT29 colon): > 22.9 µM
TGI (HT29 colon): > 25 µM
GI50 (IGROV1 ovarian): > 21.9 µM
TGI (IGROV1 ovarian): > 25 µM
GI50 (786-0 renal): > 25 µM
TGI (786-0 renal): > 25 µM
GI50 (HL-60(TB) leukemia): 16.7 µM
TGI (HL-60(TB) leukemia): > 25 µM
GI50 (NCI/ADR-RES ovarian): > 25 µM
TGI (NCI/ADR-RES ovarian): > 25 µM
GI50 (RXF 393 renal): > 25 µM
TGI (RXF 393 renal): > 25 µM
GI50 (LOX IMVI melanoma): > 25 µM
TGI (LOX IMVI melanoma): > 25 µM
GI50 (UO-31 renal): > 25 µM
TGI (UO-31 renal): > 25 µM
GI50 (SK-MEL-2 melanoma): 12.6 µM
TGI (SK-MEL-2 melanoma): > 25 µM
GI50 (MALME-3M melanoma): > 25 µM
TGI (MALME-3M melanoma): > 25 µM
GI50 (SW-620 colon): > 25 µM
TGI (SW-620 colon): > 25 µM
GI50 (NCI-H522 lung): 18.6 µM
TGI (NCI-H522 lung): > 25 µM
GI50 (SN12C renal): > 25 µM
TGI (SN12C renal): > 25 µM
GI50 (PC-3 prostate): > 25 µM
TGI (PC-3 prostate): > 25 µM
GI50 (T-47D breast): > 25 µM
TGI (T-47D breast): > 25 µM
GI50 (SK-OV-3 ovarian): > 25 µM
TGI (SK-OV-3 ovarian): > 25 µM
GI50 (OVCAR-3 ovarian): > 23.7 µM
TGI (OVCAR-3 ovarian): > 25 µM
GI50 (M14 melanoma): > 25 µM
TGI (M14 melanoma): > 25 µM
GI50 (SR leukemia): 11.1 µM
TGI (SR leukemia): > 25 µM
GI50 (HOP-92 NSCLC): > 25 µM
TGI (HOP-92 NSCLC): > 25 µM
GI50 (A498 renal): > 25 µM
TGI (A498 renal): > 25 µM
GI50 (KM12 colon): 20.3 µM
TGI (KM12 colon): > 25 µM
GI50 (SK-MEL-28 melanoma): > 25 µM
TGI (SK-MEL-28 melanoma): > 25 µM
GI50 (A549 NSCLC): > 25 µM
TGI (A549 NSCLC): > 25 µM
GI50 (OVCAR-4 ovarian): > 25 µM
TGI (OVCAR-4 ovarian): > 25 µM
GI50 (UACC-62 melanoma): > 25 µM
TGI (UACC-62 melanoma): > 25 µM
GI50 (SNB-19 CNS): 21.8 µM
TGI (SNB-19 CNS): > 25 µM
GI50 (RPMI-8226 leukemia): > 25 µM
TGI (RPMI-8226 leukemia): > 25 µM
GI50 (DU-145 prostate): > 25 µM
TGI (DU-145 prostate): > 25 µM
GI50 (MDA-MB-231 breast): > 25 µM
TGI (MDA-MB-231 breast): > 25 µM
